The text below walks through data of patent publication US10821142B2, “Cancer treatment and diagnosis” (priority 2015, dated 2020).

The test system of test [1] is STING-dependent genes in murine embryonic fibroblasts. In words: Gene array and qPCR of WT and SKO MEFs treated with AOM or DMH. It counts as cell-based, mouse. The note with it: WT and SKO MEFs; DMH 1 mM for 8 hours. As for the experimental part:
FIGS. 1A-1E show activation of STING-dependent genes by azoxymethane (AOM) (FIG. 1A) Gene array analysis of Wild type (WT) and STING deficient (SKO) mouse embryonic fibroblasts (MEFs) treated with AOM at 0.14 mM for 8 hours (Left) and 1,2-dimethylhydrazine (DMH) at 1 mM for 8 hours (Right). Highest variable genes are shown. Rows represent individual genes; columns represent individual samples. Grayscale indicates transcript levels below, equal to, or above the mean. Scale represents the intensity of gene expression (log 2 scale ranges between −2.4 and 2.4). (FIG. 1B) qPCR analysis of Cxcl10 and Ifit3 in MEFs treated with AOM and DMH same as FIG. 1A. (FIG. 1C) qPCR analysis of Cxcl10 in Human epithelial cell (FHC) treated with AOM and DMH at 1 mM for 24 hours. (FIG. 1D) FHC cells were transfected with STING or control siRNA for 72 hours followed by AOM and DMH treatment same as FIG. 1C, and were then subjected to Cxcl0 mRNA expression (Left). STING expression level after siRNA treatment was determined by qPCR (Right). […] (FIG. 1E) STING Immunohistochemistry staining of the colon tissue from WT and SKO mice (Left) and Human. All images were shown at original magnification, 200×.
Towards these objectives, the AOM/DSS model, as described above, was utilized and analyzed the effects of AOM and precursor DMH upon STING signaling. Principally, wild type (WT) or STING-deficient (SKO) murine embryonic fibroblasts (MEF) were treated in vitro with DMH or metabolite AOM for 8 hours and microarray analysis performed to analyze the consequences to gene expression. […] The observed STING-dependent gene expression was confirmed following RT-PCR analysis of select mRNA such as Cxcl10 and IFIT3 (FIG. 1B). […] Thus, the DNA damaging agent DMH/AOM can invoke STING-dependent signaling.
Total RNA was isolated from cells or tissues with RNeasy Mini kit (74104, Qiagen, Valencia, Calif.). RNA quality was analyzed by Bionalyzer RNA 6000 Nano (Agilent Technologies, Santa Clara Calif.). […]

The test system of another test is IRF3/NF-κB translocation. The experiment in a line: Immunofluorescence of IRF3/NF-κB translocation in FHC treated with DMH/AOM. The class given is cell-based, human. Particulars: 3 mM for 48 hours. As for the experimental part: FIGS. 8A-8C show fluorescence microscopy analysis (related to FIG. 1) of DAPI staining in WT and SKO MEFs treated with 3 mM of AOM of 3 mM of DMH (FIG. 8A) and anti-dsDNA staining and the ration of cytoplasm to nucleus (FIG. 8B) in Human normal colon epithelial cells (FHC) treated with 3 mM of AOM or 3 mM of DMH for 48 hours. (FIG. 8C) Immunofluorescence microscopy analysis of FHC treated with AOM and DMH sane as FIG. 8A for 48 hours using p65 or IRF3 antibody. Images shown at original magnification, 160×.
To start determining the mechanisms underlining the cause of DMH/AOM-induced STING activity, MEF or FHC cells were treated with these drugs and observed by two different approaches, DAPI staining and immunofluorescence (IF) using anti-dsDNA antibody, the leakage of DNA into the cytosol (FIGS. 8A and 8B). Cytosolic DNA activates STING and stimulates STING/TBK1 trafficking via autophagy to endosomal regions harboring the transcription factors IRF3 and NF-κB, which triggers cytokine production. […]
Cells were cultured and treated in their appropriate media on Lab-Tek II chamber slides. […] Immunostaining was performed with rabbit-anti-STING polyclonal followed by fluorescence conjugated secondary antibodies (FITC-goat-anti-rabbit) (Invitrogen). […]

In the next test the test system is type I IFN production. In words: IFNB induction (qPCR) in normal and colon cancer cells treated with AOM or DMH. It counts as cell-based, human. The note with it: 15 mM for 20 hours. As for the experimental part: FIG. 22. Normal and colon cancer cells were treated with AOM or DMH at 15 mM for 20 hours. IFNB induction was analyzed by qPCR. STING, IRF3 and NF-kB translocation was examined: +, translocation; −, no translocation.
The question arises as to why the STING-signaling pathway may be inhibited in colon adenocarcinoma. Recently, it was shown that STING-deficient cells and mice are sensitive to AOM-induced DNA damage. In this situation, the STING pathway may play a role in the DNA-damage response pathway, to induce the production of cytokines which facilitate tissue repair or damaged cell removal (Chatzinikolaou et al., 2014; Kidane et al., 2014; Lord and Ashworth, 2012). As such, innate immune induction of CA cells in response to DNA damaging agents was examined. […] Thus, the inhibition of the STING pathway may enable DNA damaged cells, harboring mutations, to escape part of the DNA damage response and the immune surveillance machinery to progress into a tumorigenic state.

Each structure is given as a SMILES string.

`CNNC` [DMH, 1,2-dimethylhydrazine]: the STING-dependent gene expression result in test [1] is recorded as “A similar effect was observed”. Besides, in the test on IRF3/NF-κB translocation, the “translocation of IRF3/NF-κB” value is listed as “could instigate the translocation of IRF3/NF-κB”. For the same molecule, the “production of type I IFN” value in the test on type I IFN production (CA cells with defective STING activated IRF3 or NF-kB activity) is recorded as “unable to generate type I IFN”; in the test on type I IFN production (normal colon epithelial (CCD841) and LS123), “able to induce the production of type I IFN”.
